Experimental findings from patent US20240122180A1, “FUNGICIDAL HALOMETHYL KETONES AND HYDRATES AND THEIR MIXTURES” (FMC Corporation, priority 2020, published 2024) are described below.

Series [1] concerns Zymoseptoria tritici (the causal agent of wheat leaf blotch). Nature of the series: Test D: preventive spray on wheat seedlings, disease rating (100 = 100% control; * 50 ppm, ** 10 ppm, *** 250 ppm). It is filed as in vivo. The note with it: Zymoseptoria tritici, 250 ppm test suspension, 100 = 100% disease control. The gist of the method:
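Compounds first dissolved in acetone (3% of final volume), then suspended in 50/50 acetone/water with 250 ppm PEG400 and sprayed to run-off on wheat seedlings; Z. tritici spores inoculated next day. Incubated saturated at 24° C. 48 h, then 20° C. 17 days; disease control rated 0–100 versus controls.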

The test system of series [2] is Phakopsora pachyrhizi (the causal agent of Asian soybean rust). Nature of the series: Test A: preventive spray on soybean seedlings, visual disease rating (100 = 100% control; * 50 ppm, ** 10 ppm, *** 250 ppm). It is filed as in vivo. The note with it: Phakopsora pachyrhizi, 100 = 100% disease control, 0 = no control; for pest or weed control at 10 ppm: 10 ppm test suspension. The procedure, abridged: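 Preventive test: one day after spraying compound (acetone/water suspension, 250 ppm PEG400), seedlings received rust spore inoculum, 24 h in saturated air then 8 days in growth chamber, both at 22 °C. Disease control scored visually, 100 = complete, 0 = none, relative to untreated controls.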

Series [3] has as its system Uncinula necator (the causal agent of grape powdery mildew). Nature of the series: Test C: preventive spray on grape seedlings, disease rating (100 = 100% control; * 50 ppm, ** 10 ppm, *** 250 ppm). It is filed as in vivo. The settings on record: Erysiphe necator, 100 = 100% disease control. The procedure, abridged:
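Grape seedlings sprayed to run-off with compound suspended in acetone/water (50/50) with 250 ppm PEG400, then inoculated next day with Uncinula necator spores. Kept at 20 °C for 12 days before disease rating, where 100 is full control and 0 none, relative to untreated controls.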

The test system of series [4] is Puccinia recondita f. sp. tritici (the causal agent of wheat leaf rust). Nature of the series: Test B: preventive spray on wheat seedlings, disease rating (100 = 100% control; * 50 ppm, ** 10 ppm, *** 250 ppm). It is filed as in vivo. The settings on record: Puccinia recondita, 100 = 100% disease control; for pest or weed control at 50 ppm: 50 ppm test suspension; for pest or weed control at 10 ppm: 10 ppm test suspension. The gist of the method: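 Preventive test: Puccinia recondita f. sp. tritici spores were inoculated one day after run-off spraying of wheat seedlings with test suspension (acetone/water 50/50, 250 ppm PEG400). After 24 h in saturated air and 6 days in a growth chamber, both at 20° C, control was scored 0–100 versus untreated plants.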

Series [5] deals with Blumeria graminis f. sp. tritici (the causal agent of wheat powdery mildew). Nature of the series: Test E: preventive spray on wheat seedlings, visual disease rating (100 = 100% control; * 50 ppm, ** 10 ppm, *** 250 ppm). The settings on record: Blumeria graminis, 250 ppm test suspension, 100 = 100% disease control. The class given is in vivo. The gist of the method: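 Test suspension (3% acetone, acetone/water 50/50, 250 ppm PEG400) sprayed to run-off on wheat seedlings; inoculated next day with powdery mildew spore dust and kept 8 days at 20 °C. Visual rating, 100 = full and 0 = no control relative to untreated.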

In series [6] the test system is Phakopsora pachyrhizi (the causal agent of Asian soybean rust). Nature of the series: Test F: Compound 32 or 64 alone and in mixtures on soybean seedlings, observed (Obsd) and Colby expected (Exp) disease control. It is filed as in vivo. The settings on record: for pest or weed control at 1.422 ppm: Compound 32 1.422 ppm alone; for pest or weed control at 2.276 ppm: Compound 32 2.276 ppm alone.

The mark [7] stands for this setting: Phakopsora pachyrhizi, Table B-1.
The mark [8] stands for this setting: Phakopsora pachyrhizi, Table C-1.
The mark [9] stands for this setting: Phakopsora pachyrhizi, Table D-1.
The mark [10] stands for this setting: Phakopsora pachyrhizi, Table F-1.
The mark [11] stands for this setting: Phakopsora pachyrhizi, Table G-1.
Setting [12] is: Phakopsora pachyrhizi, Table H-1.
[13] abbreviates: Phakopsora pachyrhizi, Table I-1.

One may read the melting point as the temperature, or range, at which the solid turns liquid. One may read the pest or weed control as how far the test organism was held down. `CCOC(=O)c1cnn(Cc2cnn(CC(O)(O)C(F)(F)F)c2)c1` [compound 368] came in with a melting point of 81 to 84 °C. Moreover, in series [1] (0 = no control), the pest or weed control at 250 ppm is 0%. In series [2] (50 ppm test suspension), this compound showed a pest or weed control at 50 ppm of 0%. This compound also returned a pest or weed control at 250 ppm in series [3] (250 ppm test suspension, 0 = no control) of 33%. This compound registered a pest or weed control at 50 ppm in series [4] (0 = no control) of 0%. In addition, the pest or weed control at 250 ppm in series [5] (0 = no control) was 0%.

For the compound `CCOC(=O)c1cnn(Cc2c(F)c(F)c(OCC3(C(F)(F)F)OCCO3)c(F)c2F)c1` [compound 392], the melting point lay within 59 to 62 °C. This compound gave a pest or weed control at 10 ppm in series [2] of 97%. In series [4] (0 = no control), this compound yielded a pest or weed control at 10 ppm of 19%.

With `CCO/C(=C\Oc1ccc(Cn2cc(C(=O)OCc3ccccc3)cn2)cc1)C(F)(F)F` [Compound 186, phenylmethyl 1-[[4-[[(1Z)-2-ethoxy-3,3,3-trifluoro-1-propen-1-yl]oxy]phenyl]methyl]-1H-pyrazole-4-carboxylate], the melting point lay within 63 to 67 °C. The compound also had a pest or weed control at 250 ppm in series [1] (wheat seedlings) of 9%. In addition, the pest or weed control at 10 ppm in series [4] (wheat seedlings) is 0%. Moreover, in series [5] (wheat seedlings), the pest or weed control at 250 ppm is 84%.

For `CCOC(=O)c1cnn(Cc2ccc(OCC3(C(F)(F)F)OCCO3)cc2)c1` [Compound 32, ethyl 1-[[4-[[2-(trifluoromethyl)-1,3-dioxolan-2-yl]methoxy]phenyl]methyl]-1H-pyrazole-4-carboxylate], the pest or weed control at 250 ppm in series [1] (wheat seedlings) came out at 89%; in series [5] (wheat seedlings), 97%. In addition, the pest or weed control at 10 ppm in series [3] (10 ppm test suspension (**), grape seedlings) is 100%. For the same compound, the pest or weed control at 1.422 ppm stood at 78% in series [6] (Table E-1); 55% in series [6] (setting [7]); 39% in series [6] (setting [8]); 52% in series [6] (setting [9]); 75% in series [6] (setting [10]); 39% in series [6] (setting [11]). The pest or weed control at 1.422 ppm in series [6] (setting [12]) turned out to be 69%; in series [6] (setting [13]), 63%. For the same compound, the pest or weed control at 2.276 ppm in series [6] (Table E-1) amounted to 80%; in series [6] (setting [7]), 64%; in series [6] (setting [8]), 44%; in series [6] (setting [9]), 60%; in series [6] (setting [10]) it was 77%; in series [6] (setting [11]), 61%. The pest or weed control at 2.276 ppm in series [6] (setting [12]) came to 63%; in series [6] (setting [13]), 71%. In series [4] (wheat seedlings), the pest or weed control at 50 ppm worked out at 68%.

`O=C(NCC1CC1)c1csc(Cc2ccc(OCC3(C(F)(F)F)OCCO3)cc2)n1` [Compound 71, N-(cyclopropylmethyl)-2-[[4-[[2-(trifluoromethyl)-1,3-dioxolan-2-yl]methoxy]phenyl]-methyl]thiazole-4-carboxamide] came in with a melting point of 88 to 92 °C. This compound also returned a pest or weed control at 10 ppm in series [4] (wheat seedlings) of 96%.

Turning to `OC(O)(COc1cccc(Cn2cc(Br)cn2)c1)C(F)(F)F` [compound 386], the melting point is 83.7 to 86.5 °C. The compound also gave a pest or weed control at 10 ppm in series [2] of 84%. In series [4] (0 = no control), this compound registered a pest or weed control at 10 ppm of 19%.
